Patent US20230172984A1, “CLEARANCE OF SENESCENT CELLS BY ACTIVATION OF iNKT CELLS” (THE REGENTS OF THE UNIVERSITY OF CALIFORNIA, priority 2020, published 2023)

Tested on: senescent preadipocytes (C12FDG^Hi) in eWAT of HFD mice
Assay: C12FDG flow cytometry assay (SA-βgal activity) on eWAT SVF of HFD mice
Format: in vivo, mouse
Settings: HFD-fed mice treated with ABT-737 vs vehicle-treated controls
Method: MATERIALS AND METHODS. Mouse husbandry. All procedures involving mice were performed according to the IACUC standards following ethics approval by the animal committee at the University of California, San Francisco. Male C57BL6/J on chow or HFD fed mice. HFD mice were fed a high-fat diet (60% kcal from fat) from 6 weeks until 22 weeks of age. All experiments on HFD mice were performed at 22-24 weeks total age (16-18 weeks on HFD). Age-matched male C57BL6/J mice on standard rodent chow diet were used as controls. For the lung injury model, 10-week-old male C57BL/6J mice were used. The animals were divided into three groups: the control group, the injured group, and the α-GalCer treated group. The animals in the control group received vehicle only (i.p.) on day 10. The injured group animals received bleomycin (3 U/kg) via the intratracheal route at the start of the experiment (day 0). The animals in the α-GalCer treated groups received bleomycin (3 U/kg) on day 0, and i.p. injection of α-GalCer (2 μg/mouse) on day 10. The animals in all the groups were sacrificed on day 14, and lungs were harvested for isolation of primary pulmonary Alveolar Type II cells (ATII) on the same day. For the hydroxyproline assay, mice were euthanized 21 days after injury.
Epidydmal white adipose tissue stromal vascular fraction (eWAT SVF) isolation. eWAT SVF was isolated using standard protocols. Briefly, mice were euthanized, and epididymal fat pads were harvested, washed twice in D-PBS and minced. eWAT pads were digested with 1 U/ml Collagenase-D (Roche) in 1×HBSS containing 1% BSA (Sigma-Aldrich) for 1 hr at 37° C. Digested fat tissue was then strained twice through 100 μm strainers and neutralized with 30 ml of complete culture media (DMEM-F12 1:1, 10% FBS, 1×Penicillin-streptomycin). Samples were spun at 500 g for 5 minutes, shaken to resuspend the SVF pellet and then spun again. The resulting SVF pellet containing blood cells was lysed with ACKS buffer, washed in D-PBS and spun down. Total live SVF cells were counted using trypan blue and then used for various assays.
C12FDG flow cytometry assay. eWAT SVF cells isolated and counted as described above were adjusted to 3×10^6 cells/ml in complete culture media and incubated with 33 μM C12FDG for 1 hr in a 37° C. water bath. Cells were then spun down at 500 g for 5 minutes, washed with Cell Staining buffer, and stained with anti-CD45-APC (clone 30F-11) and anti-CD31-PE-Cy7 (clone 390) each at a 1:200 dilution on ice for 30 minutes. Cells were then washed in Cell Staining buffer and resuspended in Cell Staining buffer containing 1×7-AAD. Samples were analyzed on an Attune acoustic focusing cytometer. Gates were set as follows: cells (FSC-A/SSC-A), forward scatter singlets (FSC-H/FSC-A), side-scatter singlets (SSC-H/SSC-A), live cells (7-AAD^−), non-immune cells (CD45^−), non-endothelial cells (CD31^−) and analyzed for C12FDG fluorescence. […] Data were analyzed with FlowJo (v. 10). For Lung, 1×10^6 cells from each sample were used to perform the assay. The cells were incubated with 66 μm of C12FDG in sterile DMEM containing DNase for 1 hour at 37° C. Following the incubation, the cells were washed with cell staining buffer, blocked with anti CD16/32 mouse monoclonal antibody (1:1000, prepared by the UCSF monoclonal antibody core), and stained with APC anti-mouse CD45 (1:400), and 7-AAD (1:1000). The gating strategy followed selected 7-AAD^−, CD45^−, and C12FDG^+ cells. […]

## CN(C)CC[C@H](CSc1ccccc1)Nc1ccc(S(=O)(=O)NC(=O)c2ccc(N3CCN(Cc4ccccc4-c4ccc(Cl)cc4)CC3)cc2)cc1[N+](=O)[O-] [ABT-737]
FIG. 2C
  number of C12FDG^Hi cells in preadipocyte-enriched SVF population: reduced the number of C12FDG^Hi cells
FIG. 2D
  relative number of C12FDG^Lo cells in preadipocyte-enriched SVF population: increased the relative number of C12FDG^Lo cells
